{
  "source": "ChEMBL document CHEMBL6096728",
  "about": "“Simultaneous Induction of Immunogenic Pyroptosis and PD-L1 Downregulation by One Single Photosensitizer for Synergistic Cancer Photoimmunotherapy” (J Med Chem, 2025)",
  "key": {"[1]": {"test": "Toxicity in BALB/c mouse assessed as effect on hemoglobin at 25 mg/kg, iv measured after 14 days", "format": "organism-based", "conditions": "in vivo, 336 h, time 14 day"}, "MDA-MB-231 [2]": {"test_system": "MDA-MB-231", "test": "Photocytotoxicity in human MDA-MB-231 cells assessed as cell viablity incubated for 24 hrs under light irradiation of 50 mW.cm/2 at 400 to 700nm measured after 10 mins in normoxia condition by CCK-8 method", "format": "functional, cell-based", "conditions": "MDA-MB-231, light or radiation study"}, "MDA-MB-231 [3]": {"test_system": "MDA-MB-231", "test": "Downregulation of PD-L1 expression level in human MDA-MB-231 cells at 0.5 uM preincubated with MG-132 followed by compound addition and measured after 24 hrs under light irradiation of 20 mW.cm/2 at 400 to 700nm for 10 mins by Western blot analysis", "format": "functional, cell-based"}, "4T1 [4]": {"test_system": "4T1", "test": "Induction of pyroptosis in mouse 4T1 cells assessed as appearance of large bubbles in cell at 0.5 uM preincubated with compound for 4 hrs followed by light irradiation of 20 mW.cm/2 at 400 to 700nm for 10 mins by confocal fluorescence microscopy analysis", "format": "functional, cell-based"}, "4T1 [5]": {"test_system": "4T1", "test": "Antitumor activity against mouse 4T1 cells implanted in BALB/c mouse model assessed as reduction in tumor growth at 25 mg/kg, iv measured after 14 days under light irradiation of 300 mW.cm/2 at 400 to 700nm measured after 5 mins", "format": "functional, organism-based", "conditions": "time 14.0 day"}, "[6]": {"test": "Toxicity in BALB/c mouse assessed as change in body weight at 25 mg/kg, iv measured after 14 days", "format": "organism-based", "conditions": "in vivo, 336 h, time 14 day"}, "[7]": {"test": "Toxicity in BALB/c mouse assessed as change in body weight at 25 mg/kg, iv measured after 14 days under light irradiation of 300 mW.cm/2 at 400 to 700nm measured after 5 mins", "format": "organism-based", "conditions": "in vivo, 336 h, time 14 day"}, "MDA-MB-231 [8]": {"test_system": "MDA-MB-231", "test": "Induction of pyroptosis in human MDA-MB-231 cells assessed as upregulation of GSDME-N expression level at 0.1 to 0.5 uM incubated with compound for 12 hrs under dark condition by Western blot analysis", "format": "functional, cell-based", "conditions": "dose 0.1-0.5 µM"}, "4T1 [9]": {"test_system": "4T1", "test": "(§1) Induction of intracellular ROS generation in mouse 4T1 cells assessed as increase in fluorescence intensity at 0.1 uM preincubated for 2 hrs followed by compound washout further incubated with DCFH-DA probe for 30 mins under light irradiation of 20 mW.cm/2 at 400 to 700nm measured after 10 mins in presence of NaN3 by flow cytometry analysis", "format": "functional, cell-based"}, "4T1 [10]": {"test_system": "4T1", "test": "Antitumor immunity against mouse 4T1 cells implanted in BALB/c mouse model assessed as increase in proportion of tumor infiltrating CD8+ T cells at 25 mg/kg, iv measured after 14 days under light irradiation of 300 mW.cm/2 at 400 to 700nm measured after 5 mins by immunofluorescence analysis", "format": "functional, organism-based", "conditions": "time 14.0 day"}, "4T1 [11]": {"test_system": "4T1", "test": "Antitumor immunity against mouse 4T1 cells implanted in BALB/c mouse model assessed as upregulation of proportion of dendritic cells in lymph node at 25 mg/kg, iv measured after 14 days under light irradiation of 300 mW.cm/2 at 400 to 700nm measured after 5 mins by flow cytometry analysis", "format": "functional, organism-based", "conditions": "time 14.0 day"}, "[12]": {"test": "Drug uptake in mouse 4T1 cells assessed as increase in fluorescence intensity at 2.5 uM measured after 10 mins by flow cytometry analysis", "format": "ADME, cell-based", "conditions": "4t1, 10 min"}, "MDA-MB-231 [13]": {"test_system": "MDA-MB-231", "test": "Induction of pyroptosis in human MDA-MB-231 cells assessed as effect on caspase-1 expression level at 0.1 to 0.5 uM preincubated with compound for 12 hrs followed by light irradiation of 20 mW.cm/2 at 400 to 700nm for 10 mins by Western blot analysis", "format": "functional, cell-based", "conditions": "dose 0.1-0.5 µM"}, "MDA-MB-231 [14]": {"test_system": "MDA-MB-231", "test": "Induction of cell death in human MDA-MB-231 cells assessed as decrease in green fluorescence at 0.5 uM incubated for 24 hrs followed by light irradiation of 20 mW.cm/2 at 400 to 700nm for 10 mins by Calcein-AM/PI staining based analysis", "format": "functional"}, "MDA-MB-231 [15]": {"test_system": "MDA-MB-231", "test": "Photocytotoxicity in human MDA-MB-231 cells assessed as reduction in 3D multicellular spheroids diameter at 0.5 to 1 uM incubated for 24 hrs under light irradiation of 50 mW.cm/2 at 400 to 700nm measured after 10 mins in hypoxia condition", "format": "functional, cell-based", "conditions": "dose 0.5-1 µM"}, "MDA-MB-231 [16]": {"test_system": "MDA-MB-231", "test": "Downregulation of PD-L1 expression level in human MDA-MB-231 cells at 0.5 uM preincubated with chloroquine followed by compound addition and measured after 24 hrs under light irradiation of 20 mW.cm/2 at 400 to 700nm for 10 mins by Western blot analysis", "format": "functional, cell-based"}, "MDA-MB-231 [17]": {"test_system": "MDA-MB-231", "test": "Inhibition of STAT3 phosphorylation level in human MDA-MB-231 cells at 0.5 uM incubated for 24 hrs under light irradiation of 20 mW.cm/2 at 400 to 700nm for 10 mins by Western blot analysis", "format": "functional, cell-based"}, "4T1 [18]": {"test_system": "4T1", "test": "Antitumor immunity against mouse 4T1 cells implanted in BALB/c mouse model assessed as fold increase in CD8+ T cells in spleen at 25 mg/kg, iv measured after 14 days under light irradiation of 300 mW.cm/2 at 400 to 700nm measured after 5 mins […]", "format": "functional", "conditions": "time 14 day"}, "4T1 [19]": {"test_system": "4T1", "test": "as §1, with “mins” for “mins in presence of NaN3”", "format": "functional, cell-based"}, "4T1 [20]": {"test_system": "4T1", "test": "Antitumor immunity against mouse 4T1 cells implanted in BALB/c mouse model assessed as upregulation of proportion of neutrophils in lymph node at 25 mg/kg, iv measured after 14 days under light irradiation of 300 mW.cm/2 at 400 to 700nm measured after 5 mins by flow cytometry analysis", "format": "functional, organism-based", "conditions": "time 14.0 day"}, "MDA-MB-231 [21]": {"test_system": "MDA-MB-231", "test": "as §1, with “human MDA-MB-231” for “mouse 4T1”, “mins” for “mins in presence of NaN3”", "format": "functional, cell-based"}, "4T1 [22]": {"test_system": "4T1", "test": "Downregulation of PD-L1 expression level in mouse 4T1 cells at 0.1 to 0.5 uM incubated for 24 hrs under light irradiation of 20 mW.cm/2 at 400 to 700nm for 10 mins by Western blot analysis", "format": "functional, cell-based", "conditions": "dose 0.1-0.5 µM"}, "[23]": {"test": "Phototoxicity against mouse 4T1 cells preincubated for 2 hrs followed by light irradiation of 20 mW.cm/2 at 400 at 700nm for 24 hrs by CCK-8 method", "format": "functional, cell-based", "conditions": "4T1, light or radiation study"}, "[24]": {"test": "Toxicity in BALB/c mouse assessed as effect on WBC at 25 mg/kg, iv measured after 14 days under light irradiation of 300 mW.cm/2 at 400 to 700nm measured after 5 mins", "format": "organism-based", "conditions": "in vivo, 336 h, time 14 day"}, "4T1 [25]": {"test_system": "4T1", "test": "Antitumor immunity against mouse 4T1 cells implanted in BALB/c mouse model assessed as upregulation of proportion of macrophage in lymph node at 25 mg/kg, iv measured after 14 days under light irradiation of 300 mW.cm/2 at 400 to 700nm measured after 5 mins by flow cytometry analysis", "format": "functional, organism-based", "conditions": "time 14.0 day"}, "[26]": {"test": "Toxicity in BALB/c mouse assessed as effect on spleen at 25 mg/kg, iv measured after 14 days by H and E staining based analysis", "format": "organism-based", "conditions": "in vivo, 336 h, time 14 day"}, "MDA-MB-231 [27]": {"test_system": "MDA-MB-231", "test": "Induction of pyroptosis mediated immunogenic cell death in human MDA-MB-231 cells assessed as increase in HMGB1 release at 0.5 uM incubated for 12 hrs under light irradiation of 20 mW.cm/2 at 400 to 700nm for 10 mins", "format": "functional, cell-based"}},
  "note": "Active and inactive are the calls of the source. No cut-off for these calls is given here.",
  "data": [
    {"smiles": "O=c1cc2sc3cc(N4CCNCC4)ccc3nc-2c2ccccc12", "values": [
      {"measurement": "Activity", "setting": "[1]", "result": "Non-toxic"},
      {"measurement": "IC50", "setting": "MDA-MB-231 [2]", "result": 356, "unit": "nM"},
      {"measurement": "Activity", "setting": "MDA-MB-231 [3]", "result": "inactive"},
      {"measurement": "Activity", "setting": "4T1 [4]", "result": "Active"},
      {"measurement": "Activity", "setting": "4T1 [5]", "result": "Active"},
      {"measurement": "Activity", "setting": "[6]", "result": "Non-toxic"},
      {"measurement": "Activity", "setting": "[7]", "result": "Non-toxic"},
      {"measurement": "Activity", "setting": "MDA-MB-231 [8]", "result": "Active; Compound Showed Negligible Changes"},
      {"measurement": "Activity", "setting": "4T1 [9]", "result": "inactive"},
      {"measurement": "Activity", "setting": "4T1 [10]", "result": "Active"},
      {"measurement": "Activity", "setting": "4T1 [11]", "result": "Active"},
      {"measurement": "Drug uptake", "setting": "[12]", "result": "Active"},
      {"measurement": "Activity", "setting": "MDA-MB-231 [13]", "result": "inactive"},
      {"measurement": "Activity", "setting": "MDA-MB-231 [14]", "result": "Active"},
      {"measurement": "Activity", "setting": "MDA-MB-231 [15]", "result": "Active"},
      {"measurement": "Activity", "setting": "MDA-MB-231 [16]", "result": "inactive"},
      {"measurement": "inhibition", "setting": "MDA-MB-231 [17]", "result": "Active"},
      {"measurement": "fold change (FC)", "setting": "4T1 [18]", "result": 6.3},
      {"measurement": "Activity", "setting": "4T1 [19]", "result": "Active"},
      {"measurement": "Activity", "setting": "4T1 [20]", "result": "Active"},
      {"measurement": "Activity", "setting": "MDA-MB-231 [21]", "result": "Active"},
      {"measurement": "Activity", "setting": "4T1 [22]", "result": "Active"},
      {"measurement": "IC50", "setting": "[23]", "result": 403, "unit": "nM"},
      {"measurement": "Activity", "setting": "[24]", "result": "Non-toxic"},
      {"measurement": "Activity", "setting": "4T1 [25]", "result": "Active"},
      {"measurement": "Activity", "setting": "[26]", "result": "Non-toxic"},
      {"measurement": "Activity", "setting": "MDA-MB-231 [27]", "result": "Active"}
    ]}
  ]
}
